Source: patent EP2292242B1, “A SCUTELLARIN DERIVATIVE, THE PREPARING PROCESS, THE PHARMACEUTICAL COMPOSITION AND THE USE THEREOF” (Kunming Pharmaceutical Corp., priority 2008, dated 2009)

Experiments:
[1] = background statement; cited from earlier work
[2] = comparative study on solubilities (China Pharmacopeia 2005 terms); assay type: physicochemical; settings: terms per China Pharmacopeia 2005
[3] = tested on: focal cerebral ischemia induced by MCAO (middle cerebral artery occlusion) in rats; test: focal cerebral ischemia induced by MCAO (middle cerebral artery occlusion) in rats; assay type: in vivo, SD rat; settings: induced by ADP-2Na, final concentration of ADP, turbidimetry; 50mg/kg gavage once daily for 5 days; X±SD
Experimental: Male SD rats, weighing 240~290g, grouping and dosages were as above. Additionally, a positive control group, i.e., nimodipine 50mg/kg group was set up. Animals of each group were gavage once daily for consecutive 5 days in predetermined dosage. At 30 minute after the last administration, the animals were anesthetized with 12% chloral hydrate in 350 mg/kg via intraperitoneal injection. The animals were kept left lateral position and the skin was cut along the middle point between right ear and eye line. Temporalis was separated and cheekbone was sheared. A holl was drilled with a dental drill in front of zygomatic root and MCA was exposed. […]
The animals were scored on neurological functions at 6 hour and 24 hour after modeling, according to behavior such as movement. […]
24 hour after modeling and after neurological scoring, blood was taken via carotid artery intubation in duplicate. For one sample, serum was separated and the activity of AST and LDH was determined according to the method of the kit; for another sample, it was treated with 3.8% sodium citrate in 1:9 for the purpose of anticoagulation, centrifuged at 1000rpm for 5 minutes to prepare platelet rich plasma (PRP), and centrifuged at 3500rpm for 10 minutes to prepare platelet poor plasma (PPP). […]

SMILES | solubility in water [1] | solubility in 0.01NNaOH ([2]; 0.01NNaOH) | solubility in 95%EtOH ([2]; 95%EtOH) | solubility in H2O ([2]; H2O) | solubility in MeOH ([2]; MeOH) | solubility in n-BuOH ([2]; n-BuOH) | rate of platelet aggregation [3] [%]
O=C(O)[C@H]1O[C@@H](Oc2cc3oc(-c4ccc(O)cc4)cc(=O)c3c(O)c2O)[C@H](O)[C@@H](O)[C@@H]1O [scutellarin] | sparingly soluble | soluble | slightly soluble | very slightly soluble | slightly soluble | slightly soluble | –
COCCOC(=O)C1=C(C)NC(C)=C(C(=O)OC(C)C)C1c1cccc([N+](=O)[O-])c1 (stereo not shown) [nimodipine, reference compound] | – | – | – | – | – | – | 54.15±7.76
